This is an account of results in patent publication US8962596B2 (Array BioPharma Inc., priority 2010, dated 2015).

Holding throughout (format): biochemical
Assay [1] deals with T1, JAK1 (Homo sapiens, UniProt P23458).
T1 construct: purchased Invitrogen Corporation, Carlsbad, Calif; PV4775
As to the kind of experiment: JAK1 Inhibition Assay (Omnia kinase fluorescence peptide substrate assay). The settings on record: averaged IC50 ranges; assay of Example B; 40 μM (Km app) or 1 mM ATP, 15 nM JAK1.

Assay [2] has as its target T2, JAK3 (Homo sapiens, UniProt P52333).
T2 construct: purchased Invitrogen Corporation, Carlsbad, Calif; PV4080
T2 sequence (P52333 1-1124): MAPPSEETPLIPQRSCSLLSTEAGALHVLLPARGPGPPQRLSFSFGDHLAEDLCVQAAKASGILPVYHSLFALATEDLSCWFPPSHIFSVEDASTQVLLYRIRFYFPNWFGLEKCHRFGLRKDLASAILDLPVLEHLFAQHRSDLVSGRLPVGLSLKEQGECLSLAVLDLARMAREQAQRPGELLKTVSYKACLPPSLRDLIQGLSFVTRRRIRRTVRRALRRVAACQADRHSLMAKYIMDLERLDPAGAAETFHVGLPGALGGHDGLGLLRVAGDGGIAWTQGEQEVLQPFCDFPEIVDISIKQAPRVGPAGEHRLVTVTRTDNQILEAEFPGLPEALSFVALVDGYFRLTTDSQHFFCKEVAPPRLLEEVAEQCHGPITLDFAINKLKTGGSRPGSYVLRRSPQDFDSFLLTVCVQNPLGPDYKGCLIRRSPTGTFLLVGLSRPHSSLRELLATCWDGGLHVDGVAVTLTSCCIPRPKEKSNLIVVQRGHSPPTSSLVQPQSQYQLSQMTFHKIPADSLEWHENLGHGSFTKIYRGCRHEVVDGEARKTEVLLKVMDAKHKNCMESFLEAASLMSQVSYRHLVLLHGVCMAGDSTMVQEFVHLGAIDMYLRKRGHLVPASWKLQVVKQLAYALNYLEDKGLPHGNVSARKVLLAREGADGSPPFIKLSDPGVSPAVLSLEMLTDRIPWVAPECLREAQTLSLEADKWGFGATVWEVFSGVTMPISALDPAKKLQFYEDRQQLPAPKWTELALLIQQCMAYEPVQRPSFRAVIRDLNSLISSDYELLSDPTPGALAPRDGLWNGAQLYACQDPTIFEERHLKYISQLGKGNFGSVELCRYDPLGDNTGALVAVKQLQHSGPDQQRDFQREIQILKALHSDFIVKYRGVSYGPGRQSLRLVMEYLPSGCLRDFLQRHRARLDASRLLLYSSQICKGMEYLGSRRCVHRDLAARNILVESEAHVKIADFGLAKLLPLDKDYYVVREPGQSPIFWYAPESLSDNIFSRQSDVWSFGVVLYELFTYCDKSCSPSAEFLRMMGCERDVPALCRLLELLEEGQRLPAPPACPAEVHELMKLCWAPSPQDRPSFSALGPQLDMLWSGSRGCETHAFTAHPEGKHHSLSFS
The assay can be described thus: JAK3 Inhibition Assay (Omnia kinase fluorescence peptide substrate assay). The settings on record: averaged IC50 ranges; assay of Example D; 10 μM (Km app) or 1 mM ATP, 2.5 nM JAK3. The method, boiled down: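 Kinase at 2.5 nM with 10 µM Omnia Y7 peptide and 10 µM (Km app) or 1 mM ATP in 25 mM HEPES pH 7.4, 10 mM MgCl2, 1 mM DTT, 0.01% Triton X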

Assay [3] concerns the target T3, JAK2 (Homo sapiens, UniProt O60674).
T3 construct: purchased Invitrogen Corporation, Carlsbad, Calif; PV4288
As to the kind of experiment: JAK2 Inhibition Assay (Omnia kinase fluorescence peptide substrate assay). The following applies: averaged IC50 ranges; assay of Example C; 25 μM (Km app) or 1 mM ATP, 5 nM JAK2. The method, boiled down:
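5 nM JAK2 phosphorylated 10 μM Omnia Y7 peptide with ATP at 25 μM (Km app) or 1 mM, in 25 mM HEPES pH 7.4, 10 mM MgCl2, 0.01% Triton X-100, 1 mM DTT, 2% DMSO. Fluorescence (360/485 nm) was read every 50 s for 45 min. 10-point 3-fold series from 10 μM; POC versus uninhibited and background controls, 4-parameter logistic IC50.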

Assay [4] concerns the target T4, Human Tyk2 kinase domain (Homo sapiens, UniProt P29597).
T4 construct: comprising amino acids 886 to 1187 with 10 additional histidine residues; 10xHis (histidine tag) (C, cleaved yes); made in house
T4 sequence (P29597 886-1187): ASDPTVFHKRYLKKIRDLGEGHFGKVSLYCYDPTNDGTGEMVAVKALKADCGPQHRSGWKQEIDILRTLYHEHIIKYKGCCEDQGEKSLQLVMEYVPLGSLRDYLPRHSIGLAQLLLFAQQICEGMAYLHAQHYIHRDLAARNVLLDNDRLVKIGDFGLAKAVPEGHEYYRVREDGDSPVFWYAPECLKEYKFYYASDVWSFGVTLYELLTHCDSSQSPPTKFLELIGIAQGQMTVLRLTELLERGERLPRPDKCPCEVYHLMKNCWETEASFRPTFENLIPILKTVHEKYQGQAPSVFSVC
The assay can be described thus: Tyk2 Inhibition Assay (Omnia kinase fluorescence peptide substrate assay). The following applies: averaged IC50 ranges; assay of Example A; 10 μM (Km app) or 1 mM ATP, 2 nM Tyk2. The method, boiled down:
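2 nM His-tag-cleaved kinase domain (aa 886–1187) with 8 μM Omnia Y12 peptide, 10 μM (Km app) or 1 mM ATP, pH 7.4 HEPES/10 mM MgCl2, 2% DMSO. Fluorescence (ex 360/em 485 nm) every 50 s for 45 min; IC50 from 4-parameter fit of POC, top dose 10 μM.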

T1 sequence (P23458 whole entry): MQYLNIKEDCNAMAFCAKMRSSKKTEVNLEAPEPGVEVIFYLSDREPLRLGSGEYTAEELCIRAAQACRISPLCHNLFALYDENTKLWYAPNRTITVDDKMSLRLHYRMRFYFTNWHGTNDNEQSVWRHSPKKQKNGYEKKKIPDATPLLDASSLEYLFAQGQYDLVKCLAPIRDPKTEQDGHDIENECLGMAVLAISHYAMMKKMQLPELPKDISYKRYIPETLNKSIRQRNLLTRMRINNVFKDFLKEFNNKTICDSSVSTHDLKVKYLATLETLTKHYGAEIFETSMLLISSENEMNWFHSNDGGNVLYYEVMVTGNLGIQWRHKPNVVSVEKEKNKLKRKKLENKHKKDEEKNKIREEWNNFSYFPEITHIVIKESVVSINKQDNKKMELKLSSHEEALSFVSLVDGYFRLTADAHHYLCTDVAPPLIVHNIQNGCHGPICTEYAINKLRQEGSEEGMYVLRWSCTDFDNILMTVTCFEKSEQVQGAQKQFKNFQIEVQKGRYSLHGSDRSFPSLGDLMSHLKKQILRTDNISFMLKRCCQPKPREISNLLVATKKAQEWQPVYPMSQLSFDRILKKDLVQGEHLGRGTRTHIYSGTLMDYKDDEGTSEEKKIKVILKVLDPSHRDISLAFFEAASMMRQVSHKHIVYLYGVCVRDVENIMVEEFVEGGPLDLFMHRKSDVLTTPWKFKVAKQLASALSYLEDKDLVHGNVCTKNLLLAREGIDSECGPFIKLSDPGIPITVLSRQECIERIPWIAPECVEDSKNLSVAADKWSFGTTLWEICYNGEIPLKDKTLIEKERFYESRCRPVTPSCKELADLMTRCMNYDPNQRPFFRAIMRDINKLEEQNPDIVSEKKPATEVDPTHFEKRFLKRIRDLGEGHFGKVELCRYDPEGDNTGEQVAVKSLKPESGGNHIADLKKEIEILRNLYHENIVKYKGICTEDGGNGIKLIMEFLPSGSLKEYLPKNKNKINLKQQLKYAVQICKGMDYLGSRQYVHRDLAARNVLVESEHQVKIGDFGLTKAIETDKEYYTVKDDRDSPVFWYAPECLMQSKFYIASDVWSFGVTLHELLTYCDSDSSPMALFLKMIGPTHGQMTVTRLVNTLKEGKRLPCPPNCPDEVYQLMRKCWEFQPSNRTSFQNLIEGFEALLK
T3 sequence (O60674 whole entry): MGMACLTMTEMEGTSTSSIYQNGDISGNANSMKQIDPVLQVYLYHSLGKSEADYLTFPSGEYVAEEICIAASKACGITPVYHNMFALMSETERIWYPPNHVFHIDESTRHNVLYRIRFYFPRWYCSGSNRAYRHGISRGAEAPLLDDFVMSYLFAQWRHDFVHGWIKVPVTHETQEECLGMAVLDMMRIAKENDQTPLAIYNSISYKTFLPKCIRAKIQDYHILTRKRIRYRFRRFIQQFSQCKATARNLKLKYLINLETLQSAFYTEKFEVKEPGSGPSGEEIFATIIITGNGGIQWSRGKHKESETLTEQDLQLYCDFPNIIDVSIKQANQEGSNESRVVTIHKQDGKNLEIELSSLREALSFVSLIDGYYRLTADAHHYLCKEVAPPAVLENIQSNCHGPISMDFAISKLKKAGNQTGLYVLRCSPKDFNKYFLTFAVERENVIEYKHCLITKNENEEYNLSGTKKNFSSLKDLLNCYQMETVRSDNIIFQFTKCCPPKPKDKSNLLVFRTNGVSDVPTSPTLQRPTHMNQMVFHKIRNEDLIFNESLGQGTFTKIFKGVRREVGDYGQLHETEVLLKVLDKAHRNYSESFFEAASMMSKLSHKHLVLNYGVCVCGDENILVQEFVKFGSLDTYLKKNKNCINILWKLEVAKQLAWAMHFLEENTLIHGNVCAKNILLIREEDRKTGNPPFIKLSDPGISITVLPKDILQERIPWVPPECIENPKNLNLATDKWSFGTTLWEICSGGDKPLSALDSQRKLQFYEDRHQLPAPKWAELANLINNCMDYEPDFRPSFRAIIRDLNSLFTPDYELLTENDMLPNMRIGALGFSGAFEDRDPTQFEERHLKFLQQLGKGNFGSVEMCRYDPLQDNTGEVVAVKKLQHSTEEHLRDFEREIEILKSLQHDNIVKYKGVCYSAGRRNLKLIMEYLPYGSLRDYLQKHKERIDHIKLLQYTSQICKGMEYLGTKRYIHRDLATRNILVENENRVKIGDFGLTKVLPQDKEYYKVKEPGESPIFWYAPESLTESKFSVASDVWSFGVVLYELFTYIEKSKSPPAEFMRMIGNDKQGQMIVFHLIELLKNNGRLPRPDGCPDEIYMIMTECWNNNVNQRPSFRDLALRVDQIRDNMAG

By IC50 is commonly meant the concentration that gives 50% inhibition. `C[Si](C)(C)CCOCn1cc(-c2cc3nccn3c(-c3cnn(C(CC#N)C4CC4)c3)n2)cn1` (stereo not drawn) [Example 32, 3-cyclopropyl-3-(4-(7-(1-((2-(trimethylsilyl)ethoxy)methyl)-1H-pyrazol-4-yl)imidazo[1,2-c]pyrimidin-5-yl)-1H-pyrazol-1-yl)propanenitrile]: the IC50 in assay [1] fell in the range of 100 to 1000 nM; in assay [2], 100 to 1000 nM; in assay [3], 10 to 100 nM; in assay [4] it was 10 to 100 nM.

Regarding `N#CCC(C1CC1)n1cc(-c2nc(-c3cncs3)cc3nccn23)cn1` (stereo not drawn) [Example 47, 3-Cyclopropyl-3-(4-(7-(thiazol-5-yl)imidazo[1,2-c]pyrimidin-5-yl)-1H-pyrazol-1-yl)propanenitrile], the half-maximal inhibitory concentration (IC50) in assay [1] was 100 to 1000 nM; in assay [2], above 1000 nM; in assay [3] it was 100 to 1000 nM; in assay [4] it was 10 to 100 nM.

For `Cn1cc(-c2cc3nccn3c(-c3cnn(C4(CC#N)CN(CC(F)F)C4)c3)n2)cn1` [Example 69, 2-(1-(2,2-dDifluoroethyl)-3-(4-(7-(1-methyl-1H-pyrazol-4-yl)imidazo[1,2-c]pyrimidin-5-yl)-1H-pyrazol-1-yl)azetidin-3-yl)acetonitrile], the IC50 is 100 to 1000 nM in assay [1], above 1000 nM in assay [2], 10 to 100 nM in assay [3] and below 10 nM in assay [4].

For `Cn1cc(-c2cc3nccn3c(-c3cnn(C4(CC#N)CN(CCC#N)C4)c3)n2)cn1` [Example 78, 3-(3-(cyanomethyl)-3-(4-(7-(1-methyl-1H-pyrazol-4-yl)imidazo[1,2-c]pyrimidin-5-yl)-1H-pyrazol-1-yl)azetidin-1-yl)propanenitrile], the IC50 in assay [1] was 100 to 1000 nM; in assay [2], above 1000 nM; in assay [3] it was 100 to 1000 nM; in assay [4], 10 to 100 nM.

`COc1ncc(-c2cc3nccn3c(-c3cnn(C4(CC#N)CN(S(=O)(=O)C5CC5)C4)c3)n2)cn1` [Example 141, 2-(1-(cyclopropylsulfonyl)-3-(4-(7-(2-methoxypyrimidin-5-yl)imidazo[1,2-c]pyrimidin-5-yl)-1H-pyrazol-1-yl)azetidin-3-yl)acetonitrile]: the IC50 in assay [1] is above 1000 nM; in assay [2], above 1000 nM; in assay [3], 100 to 1000 nM; in assay [4] it was 10 to 100 nM.

With `CC(CC#N)n1cc(-c2nc(-c3ccc(N4CCOCC4)cc3)cc3nccn23)cn1` (stereo not drawn) [Example 118, 3-(4-(7-(4-morpholinophenyl)imidazo[1,2-c]pyrimidin-5-yl)-1H-pyrazol-1-yl)butanenitrile], the IC50 was 10 to 100 nM in assay [1], 100 to 1000 nM in assay [2], 10 to 100 nM in assay [3] and below 10 nM in assay [4].

Take `Cn1cc(-c2cc3nccn3c(-c3cnn(C4(CC#N)CN(Cc5ccccc5)C4)c3)n2)cn1` [Example 88, 2-(1-benzyl-3-(4-(7-(1-methyl-1H-pyrazol-4-yl)imidazo[1,2-c]pyrimidin-5-yl)-1H-pyrazol-1-yl)azetidin-3-yl)acetonitrile]: the IC50 was above 1000 nM in assay [1], above 1000 nM in assay [2], 100 to 1000 nM in assay [3] and 100 to 1000 nM in assay [4].

On to `CN1CCC(c2ccc(-c3cc4nccn4c(-c4cnn(C(CC#N)C5CCCC5)c4)n3)cc2)CC1` (stereo not drawn) [Example 110, 3-Cyclopentyl-3-(4-(7-(4-(1-methylpiperidin-4-yl)phenyl)imidazo[1,2-c]pyrimidin-5-yl)-1H-pyrazol-1-yl)propanenitrile], for which the 50% inhibitory concentration (IC50) in assay [1] is 10 to 100 nM; in assay [2], 100 to 1000 nM; in assay [3] it was 10 to 100 nM; in assay [4], below 10 nM.

As to `CC(C)S(=O)(=O)N1CC(CC#N)(n2cc(-c3nc(-c4cnn(C)c4)cc4nccn34)cn2)C1` [Example 91, 2-(1-(Isopropylsulfonyl)-3-(4-(7-(1-methyl-1H-pyrazol-4-yl)imidazo[1,2-c]pyrimidin-5-yl)-1H-pyrazol-1-yl)azetidin-3-yl)acetonitrile], the IC50 is 100 to 1000 nM in assay [1], above 1000 nM in assay [2], 100 to 1000 nM in assay [3] and 10 to 100 nM in assay [4].

For `CN1CCC(c2ccc(-c3cc4nccn4c(-c4cnn(C(CC#N)C5CCCC5)c4)n3)cc2)CC1` (single isomer, unassigned) [Example 111, 3-cyclopentyl-3-(4-(7-(4-(1-methylpiperidin-4-yl)phenyl)imidazo[1,2-c]pyrimidin-5-yl)-1H-pyrazol-1-yl)propanenitrile], the IC50 in assay [1] was in the range of 100 to 1000 nM; in assay [2], 100 to 1000 nM; in assay [3], 100 to 1000 nM; in assay [4], 10 to 100 nM.

Turning to `Cn1cc(-c2cc3nccn3c(-c3cnn(C(CC#N)c4ccccc4)c3)n2)cn1` (stereo not drawn) [Example 11, 3-(4-(7-(1-methyl-1H-pyrazol-4-yl)imidazo[1,2-c]pyrimidin-5-yl)-1H-pyrazol-1-yl)-3-phenylpropanenitrile], the IC50 is 10 to 100 nM in assay [1], 100 to 1000 nM in assay [2], 10 to 100 nM in assay [3] and below 10 nM in assay [4].

In the case of `CC(C)OCCn1cc(-c2cc3nccn3c(-c3cnn(C(CC#N)C4CC4)c3)n2)cn1` (stereo not drawn) [Example 41, 3-cyclopropyl-3-(4-(7-(1-(2-isopropoxyethyl)-1H-pyrazol-4-yl)imidazo[1,2-c]pyrimidin-5-yl)-1H-pyrazol-1-yl]propanenitrile], the IC50 in assay [1] is 100 to 1000 nM; in assay [2], above 1000 nM; in assay [3], 10 to 100 nM; in assay [4], 10 to 100 nM.

In the case of `Cn1cc(-c2cc3nccn3c(-c3cnn(C4(CC#N)CN(S(=O)(=O)c5ccccc5)C4)c3)n2)cn1` [Example 99, 2-(3-(4-(7-(1-methyl-1H-pyrazol-4-yl)imidazo[1,2-c]pyrimidin-5-yl)-1H-pyrazol-1-yl)-1-(phenylsulfonyl)azetidin-3-yl)acetonitrile], the IC50 in assay [1] is 100 to 1000 nM; in assay [2], above 1000 nM; in assay [3], 100 to 1000 nM; in assay [4], 10 to 100 nM.

In the case of `N#CCC(C1CC1)n1cc(-c2nc(-c3cnn(C4CCC4)c3)cc3nccn23)cn1` (stereo not drawn) [Example 42, 3-(4-(7-(1-cyclobutyl-1H-pyrazol-4-yl)imidazo[1,2-c]pyrimidin-5-yl)-1H-pyrazol-1-yl)-3-cyclopropylpropanenitrile], the IC50 is 10 to 100 nM in assay [1], 100 to 1000 nM in assay [2], 10 to 100 nM in assay [3] and below 10 nM in assay [4].

Consider `N#CCC(C1CC1)n1cc(-c2nc(-c3cnco3)cc3nccn23)cn1` (stereo not drawn) [Example 43, 3-cyclopropyl-3-(4-(7-(oxazol-5-yl)imidazo[1,2-c]pyrimidin-5-yl)-1H-pyrazol-1-yl)propanenitrile], for which the IC50 in assay [1] was above 1000 nM; in assay [2], above 1000 nM; in assay [3], 100 to 1000 nM; in assay [4], 10 to 100 nM.
